Data as given in US20230192638A1, “POLYPHENOLS DERIVATIVES” (Epirium Bio Inc., priority 2021, published 2023).
Read-outs that look alike come from different tables or passages of the source.

Tested on: PGC-1α
Assay: Single point PGC-1α assay (in-cell ELISA in differentiated C2C12 myotubes)
Format: cell-based
Conditions: Mus musculus, each compound tested at 0.01 nM, DMSO control as 100 %
Procedure: Culture conditions: DMEM containing 25 mM glucose with 10 % FBS supplementation; grown at 37° C. and 5 % CO2.
Assay Conditions: C2C12 cells were cultured in DMEM supplemented in 10 % FBS up to 80 % confluence. The cells were further trypsinized and seeded into a 96 well plate at a density of 5000 cells/well (well volume – 100 µL) (Day 0). Following attachment, the cells were allowed to reach 80-90% confluence in the plate (typically 48 hours post seeding) and further differentiated using DMEM + 2 % Horse Serum (200 µL/well). The media was changed every day or at least every alternate day for 5 days to allow myoblasts to differentiate into myotubes. On day 7 (post seeding), the cells were treated with standards and test compounds for PGC-1α assay.
PGC-1α assay: For the detection of PGC-1α, the cells were incubated with 0.5 µg/ml primary antibody (Merck, WH0010891M3) in PBS-T containing 5 % BSA at 4° C. overnight. The cells were then washed three times with PBS-T for 5 minutes and incubated with 1:1000 dilution secondary antibody (Anti- rabbit IgG, HRP-linked Antibody, Cell Signaling) in PBS-T with 1 % BSA for 1 hour at RT. Cells were washed three times with PBS-T for 5 minutes The cells were incubated with 100 µl TMB substrate solution for 30 minutes and the reaction was stopped with 100 µl of 2N H2SO4. Then the plate was read at 450 nm using ELISA plate reader and absorbance recorded. % activity was calculated using DMSO control as 100 %. (For plate optical density calculations, a background correction was taken at 540 nm). Each compound was tested at a concentration of 0.01 nM.

[1] = average, count 1, read-out: Single point PGC1-Alpha Assay: Average Activity (%)
[2] = read-out: Single point PGC1-Alpha Assay: Activity (%)

| Structure (SMILES) | activity at 10 pM [1] | activity at 10 pM [2] |
| --- | --- | --- |
| COc1cc([C@@H]2Oc3cc(O)cc(O)c3C[C@@H]2O)ccc1O | 124% | 124% |
| Cc1cc(O)cc(C2Oc3cc(O)cc(O)c3CC2O)c1 (stereo not drawn) | 109% | 109% |
| Cc1cc(O)cc([C@@H]2Oc3cc(O)cc(O)c3C[C@@H]2O)c1 | 114% | 114% |
| Cc1cc(O)cc([C@H]2Oc3cc(O)cc(O)c3C[C@H]2O)c1 | 103% | 103% |
| Oc1cc(F)cc([C@@H]2Oc3cc(O)cc(O)c3C[C@@H]2O)c1 | 117% | 117% |
| Oc1cc(O)c2c(c1)O[C@@H](c1ccc(F)c(O)c1)[C@@H](O)C2 | 104% | 104% |
